Source: US12077503B2, “Substituted cyclic amides and their use as herbicides” (FMC CORPORATION, priority 2015, dated 2024)

Key:
Type in all cases: in vivo
[1] = tested on: Kochia (Kochia scoparia); assay: Test A preemergence; settings: Bassia scoparia, pre-emergence, 240 h, preemergence, read-out: Kochia plant response rating; for pest or weed control at 125 g/ha: 125 g ai/ha, 0 to 100 scale where 0 is no effect and 100 is complete control, approx. 10 d; for pest or weed control at 500 g/ha: 500 g ai/ha, visual injury rating about 10 d after treatment, 0 to 100 scale (0 no effect, 100 complete control)
How it was run: (§1)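 Seeds sprayed preemergence with a directed soil spray, or plants at 2 to 10 cm height and one- to two-leaf stage sprayed postemergence, with test chemicals in a non-phytotoxic solvent mixture containing surfactant, in loam soil–sand blend. Injury rated visually against untreated controls after about 10 d in greenhouse, 0 (no effect) to 100 (complete control).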

[2] = tested on: barnyardgrass (Echinochloa crus-galli); assay: Test A preemergence; settings: Echinochloa crus-galli, pre-emergence, 240 h; for pest or weed control at 125 g/ha: 125 g ai/ha, Preemergence, visual injury rating after approximately 10 d, read-out: Barnyardgrass plant response rating (0 to 100 scale, 0 is no effect, 100 is complete control); for pest or weed control at 500 g/ha: 500 g ai/ha, preemergence, visual injury rating about 10 d after treatment, 0 to 100 scale (0 no effect, 100 complete control), read-out: Barnyardgrass plant response rating
How it was run: as §1

[3] = tested on: giant foxtail (Setaria faberii); assay: Test A preemergence; settings: Setaria faberi, pre-emergence, 240 h; for pest or weed control at 125 g/ha: 125 g ai/ha, Preemergence, visual injury rating after approximately 10 d, read-out: Foxtail, Giant plant response rating (0 to 100 scale, 0 is no effect, 100 is complete control); for pest or weed control at 500 g/ha: 500 g ai/ha, preemergence, visual injury rating about 10 d after treatment, 0 to 100 scale (0 no effect, 100 complete control), read-out: Foxtail, Giant plant response rating
How it was run: as §1

[4] = tested on: pigweed (Amaranthus retroflexus); assay: Test A preemergence; settings: Amaranthus retroflexus, pre-emergence, 240 h, preemergence, read-out: Pigweed plant response rating; for pest or weed control at 125 g/ha: 125 g ai/ha, 0 to 100 scale where 0 is no effect and 100 is complete control, approx. 10 d; for pest or weed control at 500 g/ha: 500 g ai/ha, visual injury rating about 10 d after treatment, 0 to 100 scale (0 no effect, 100 complete control)
[5] = tested on: ragweed (common ragweed, Ambrosia elatior); assay: Test A preemergence; settings: Ambrosia artemisiifolia, pre-emergence, 240 h, preemergence, read-out: Ragweed plant response rating; for pest or weed control at 125 g/ha: 125 g ai/ha, 0 to 100 scale where 0 is no effect and 100 is complete control, approx. 10 d; for pest or weed control at 500 g/ha: 500 g ai/ha, visual injury rating about 10 d after treatment, 0 to 100 scale (0 no effect, 100 complete control)
How it was run: as §1

[6] = tested on: ryegrass, Italian (Italian ryegrass, Lolium multiflorum); assay: Test A preemergence; settings: Lolium multiflorum, pre-emergence, 240 h, preemergence, read-out: Ryegrass, Italian plant response rating; for pest or weed control at 125 g/ha: 125 g ai/ha, 0 to 100 scale where 0 is no effect and 100 is complete control, approx. 10 d; for pest or weed control at 500 g/ha: 500 g ai/ha, visual injury rating about 10 d after treatment, 0 to 100 scale (0 no effect, 100 complete control)
How it was run: as §1

[7] = tested on: Galium (catchweed bedstraw, Galium aparine); assay: Test A postemergence; settings: Galium, post-emergence, 240 h, postemergence, read-out: Galium plant response rating; for pest or weed control at 125 g/ha: 125 g ai/ha, visual injury on 0 to 100 scale (0 no effect, 100 complete control), approx. 10 d; for pest or weed control at 500 g/ha: 500 g ai/ha, 0 to 100 scale, 0 is no effect, 100 is complete control
How it was run: as §1

[8] = tested on: Kochia (Kochia scoparia); assay: Test A postemergence; settings: Bassia scoparia, post-emergence, 240 h, postemergence, read-out: Kochia plant response rating; for pest or weed control at 125 g/ha: 125 g ai/ha, visual injury on 0 to 100 scale (0 no effect, 100 complete control), approx. 10 d; for pest or weed control at 500 g/ha: 500 g ai/ha, 0 to 100 scale, 0 is no effect, 100 is complete control
How it was run: as §1

[9] = tested on: barnyardgrass (Echinochloa crus-galli); assay: Test A postemergence; settings: Echinochloa crus-galli, post-emergence, 240 h, postemergence, read-out: Barnyardgrass plant response rating; for pest or weed control at 125 g/ha: 125 g ai/ha, visual injury on 0 to 100 scale (0 no effect, 100 complete control), approx. 10 d; for pest or weed control at 500 g/ha: 500 g ai/ha, 0 to 100 scale, 0 is no effect, 100 is complete control
How it was run: as §1

[10] = tested on: blackgrass (Alopecurus myosuroides); assay: Test A postemergence; settings: Alopecurus myosuroides, post-emergence, 240 h, postemergence, read-out: Blackgrass plant response rating; for pest or weed control at 125 g/ha: 125 g ai/ha, visual injury on 0 to 100 scale (0 no effect, 100 complete control), approx. 10 d; for pest or weed control at 500 g/ha: 500 g ai/ha, 0 to 100 scale, 0 is no effect, 100 is complete control
How it was run: as §1

[11] = tested on: corn (Zea mays); assay: Test A postemergence; settings: Zea mays, post-emergence, 240 h, postemergence, read-out: Corn plant response rating; for plant injury at 125 g/ha: 125 g ai/ha, visual injury on 0 to 100 scale (0 no effect, 100 complete control), approx. 10 d; for plant injury at 500 g/ha: 500 g ai/ha, 0 to 100 scale, 0 is no effect, 100 is complete control
How it was run: as §1

[12] = tested on: giant foxtail (Setaria faberii); assay: Test A postemergence; settings: Setaria faberi, post-emergence, 240 h, postemergence, read-out: Foxtail, Giant plant response rating; for pest or weed control at 125 g/ha: 125 g ai/ha, visual injury on 0 to 100 scale (0 no effect, 100 complete control), approx. 10 d; for pest or weed control at 500 g/ha: 500 g ai/ha, 0 to 100 scale, 0 is no effect, 100 is complete control
How it was run: as §1

[13] = tested on: pigweed (Amaranthus retroflexus); assay: Test A postemergence; settings: Amaranthus retroflexus, post-emergence, 240 h, postemergence, read-out: Pigweed plant response rating; for pest or weed control at 125 g/ha: 125 g ai/ha, visual injury on 0 to 100 scale (0 no effect, 100 complete control), approx. 10 d; for pest or weed control at 500 g/ha: 500 g ai/ha, 0 to 100 scale, 0 is no effect, 100 is complete control
How it was run: as §1

[14] = tested on: ragweed (common ragweed, Ambrosia elatior); assay: Test A postemergence; settings: Ambrosia artemisiifolia, post-emergence, 240 h, postemergence, read-out: Ragweed plant response rating; for pest or weed control at 125 g/ha: 125 g ai/ha, visual injury on 0 to 100 scale (0 no effect, 100 complete control), approx. 10 d; for pest or weed control at 500 g/ha: 500 g ai/ha, 0 to 100 scale, 0 is no effect, 100 is complete control
How it was run: as §1

[15] = tested on: ryegrass, Italian (Italian ryegrass, Lolium multiflorum); assay: Test A postemergence; settings: Lolium multiflorum, post-emergence, 240 h, postemergence, read-out: Ryegrass, Italian plant response rating; for pest or weed control at 125 g/ha: 125 g ai/ha, visual injury on 0 to 100 scale (0 no effect, 100 complete control), approx. 10 d; for pest or weed control at 500 g/ha: 500 g ai/ha, 0 to 100 scale, 0 is no effect, 100 is complete control
How it was run: as §1

[16] = tested on: wheat (Triticum aestivum); assay: Test A postemergence; settings: Triticum aestivum, post-emergence, 240 h, postemergence, read-out: Wheat plant response rating; for plant injury at 125 g/ha: 125 g ai/ha, visual injury on 0 to 100 scale (0 no effect, 100 complete control), approx. 10 d; for plant injury at 500 g/ha: 500 g ai/ha, 0 to 100 scale, 0 is no effect, 100 is complete control
How it was run: as §1

SMILES | pest or weed control at 125 g/ha [1] [%] | pest or weed control at 500 g/ha [1] [%] | pest or weed control at 125 g/ha [2] [%] | pest or weed control at 500 g/ha [2] [%] | pest or weed control at 125 g/ha [3] [%] | pest or weed control at 500 g/ha [3] [%] | pest or weed control at 125 g/ha [4] [%] | pest or weed control at 500 g/ha [4] [%] | pest or weed control at 125 g/ha [5] [%] | pest or weed control at 500 g/ha [5] [%] | pest or weed control at 125 g/ha [6] [%] | pest or weed control at 500 g/ha [6] [%] | pest or weed control at 125 g/ha [7] [%] | pest or weed control at 500 g/ha [7] [%] | pest or weed control at 125 g/ha [8] [%] | pest or weed control at 500 g/ha [8] [%] | pest or weed control at 125 g/ha [9] [%] | pest or weed control at 500 g/ha [9] [%] | pest or weed control at 125 g/ha [10] [%] | pest or weed control at 500 g/ha [10] [%] | also measured
CSc1ccccc1NC(=O)C1C(=O)NCC1C=C(C)C (stereo not drawn) [Compound 1055] | 0 | 0 | 0 | 0 | 0 | 0 | 0 | 0 | 0 | 0 | 0 | 0 | 0 | 0 | 0 | 0 | 0 | 0 | 0 | 0 | plant injury at 125 g/ha [11]: 0%; plant injury at 500 g/ha [11]: 0%; pest or weed control at 125 g/ha [12]: 0%; pest or weed control at 500 g/ha [12]: 0%; pest or weed control at 125 g/ha [13]: 0%; pest or weed control at 500 g/ha [13]: 0%; pest or weed control at 125 g/ha [14]: 0%; pest or weed control at 500 g/ha [14]: 0%; pest or weed control at 125 g/ha [15]: 0%; pest or weed control at 500 g/ha [15]: 0%; plant injury at 125 g/ha [16]: 0%; plant injury at 500 g/ha [16]: 0%
CN1CC(c2ccccc2OC(F)(F)C(F)F)C(C(=O)Nc2cccc(F)c2F)C1=O (stereo not drawn) [Compound 1056] | 0 | 0 | 90 | 90 | 60 | 90 | 0 | 0 | 0 | 0 | 0 | 0 | 0 | 0 | 0 | 0 | 20 | 50 | 0 | 0 | plant injury at 125 g/ha [11]: 0%; plant injury at 500 g/ha [11]: 0%; pest or weed control at 125 g/ha [12]: 0%; pest or weed control at 500 g/ha [12]: 20%; pest or weed control at 125 g/ha [13]: 0%; pest or weed control at 500 g/ha [13]: 0%; pest or weed control at 125 g/ha [14]: 0%; pest or weed control at 500 g/ha [14]: 0%; pest or weed control at 125 g/ha [15]: 0%; pest or weed control at 500 g/ha [15]: 0%; plant injury at 125 g/ha [16]: 0%; plant injury at 500 g/ha [16]: 0%
CC(C)=CC1CNC(=O)C1C(=O)Nc1ccccc1S(C)(=O)=O (stereo not drawn) [Compound 1057] | 0 | 0 | 0 | 0 | 0 | 0 | 0 | 0 | 0 | 0 | 0 | 0 | 0 | 0 | 0 | 0 | 0 | 0 | 0 | 0 | plant injury at 125 g/ha [11]: 0%; plant injury at 500 g/ha [11]: 0%; pest or weed control at 125 g/ha [12]: 0%; pest or weed control at 500 g/ha [12]: 0%; pest or weed control at 125 g/ha [13]: 0%; pest or weed control at 500 g/ha [13]: 0%; pest or weed control at 125 g/ha [14]: 0%; pest or weed control at 500 g/ha [14]: 0%; pest or weed control at 125 g/ha [15]: 0%; pest or weed control at 500 g/ha [15]: 0%; plant injury at 125 g/ha [16]: 0%; plant injury at 500 g/ha [16]: 0%
